Reference: patent US20230142844A1, “USE OF 1,9-DECANEDIOL IN RETARDING UREA HYDROLYSIS” (INSTITUTION OF SOIL SCIENCE, CHINESE ACADEMY OF SCIENCES, priority 2021, published 2023)

Tested on: urea hydrolysis in soil
Test: Soil culture test: effect of inhibitors applied with urea on urea hydrolysis (urea nitrogen and ammonia nitrogen contents in soil)
Details: for contents of ammonia nitrogen in soil (NH4^+-N) / contents of urea nitrogen in soil (Urea-N): flooded paddy soil, 25° C.; for inhibition of urea hydrolysis during the culture period / effect on retarding the hydrolysis efficiency of urea: result in words; for effect on retarding the hydrolysis efficiency of urea: applied with urea to flooded paddy soil
Method: 1.1 experimental soil: the type of experimental soil is paddy soil, and the texture is sandy loam soil. It is collected from 0-20 cm topsoil of experimental field in Yingtan City, Jiangxi Province (28° 15′N, 116° 55′E). It is sieved by 2 millimeters (mm), mixed, and reserved.
1.2 test reagent: 1,9-decanediol is customized in market, and a structural formula thereof is C10H22O2. Nitrification inhibitor is dicyandiamide (DCD, a structural formula thereof is C2H4N4) is purchased from Sigma.
1.3 experimental treatment: experimental setting as follows: urea treatment (U); nitrification inhibitor DCD +urea treatment including: DCD-20 mg/kg soil; 1,9-decanediol+urea treatment in the soil including: 1,9-D-100 mg/kg, 1,9-D-200 mg/kg, 1,9-D-500 mg/kg, and 1,9-D-1000 mg/kg. Each treatment is repeated three times. The amount of nitrogen applied is […] nitrogen per kilogram soil.
After the experimental soil is weighed into 100 milliliters (mL) plastic pipe, distilled water is evenly added, and the soil water content is adjusted to 60% of the maximum field water capacity. Then the plastic pipe is sealed with sealing film and uniform holes are pricked to keep air flowing, and pre-cultured in a 25° C. incubator for three days.
After the pre-culture, according to the different experimental treatments, the corresponding urea and inhibitors (1,9-decanediol and DCD) are weighed to form a mixed solution, the mixed solution is evenly applied to soil, then distilled water is added to maintain a flooded state, and cultured at 25° C. […]. The contents of urea nitrogen and ammonia nitrogen in soil are measured on the 1st, 2nd, 3rd, 5th, and 7th days of culture to evaluate the effects of different inhibitors on nitrogen transformation.

[1] = 1,9-decanediol 100 mg/kg in soil + urea, 1 d of culture
[2] = 1,9-decanediol 100 mg/kg in soil + urea, 2 d of culture
[3] = 1,9-decanediol 100 mg/kg in soil + urea, 3 d of culture
[4] = 1,9-decanediol 100 mg/kg in soil + urea, 5 d of culture
[5] = 1,9-decanediol 100 mg/kg in soil + urea, 7 d of culture
[6] = 1,9-decanediol 200 mg/kg in soil + urea, 1 d of culture
[7] = 1,9-decanediol 200 mg/kg in soil + urea, 2 d of culture
[8] = 1,9-decanediol 200 mg/kg in soil + urea, 5 d of culture
[9] = 1,9-decanediol 200 mg/kg in soil + urea, 7 d of culture
[10] = 1,9-decanediol 500 mg/kg in soil + urea, 1 d of culture
[11] = 1,9-decanediol 500 mg/kg in soil + urea, 2 d of culture
[12] = 1,9-decanediol 500 mg/kg in soil + urea, 3 d of culture
[13] = 1,9-decanediol 500 mg/kg in soil + urea, 5 d of culture
[14] = 1,9-decanediol 500 mg/kg in soil + urea, 7 d of culture
[15] = 1,9-decanediol 1000 mg/kg in soil + urea, 1 d of culture
[16] = 1,9-decanediol 1000 mg/kg in soil + urea, 2 d of culture
[17] = 1,9-decanediol 1000 mg/kg in soil + urea, 3 d of culture
[18] = 1,9-decanediol 1000 mg/kg in soil + urea, 5 d of culture
[19] = 1,9-decanediol 1000 mg/kg in soil + urea, 7 d of culture
[20] = DCD 20 mg/kg soil + urea, 1 d of culture
[21] = DCD 20 mg/kg soil + urea, 2 d of culture
[22] = DCD 20 mg/kg soil + urea, 3 d of culture
[23] = DCD 20 mg/kg soil + urea, 5 d of culture
[24] = DCD 20 mg/kg soil + urea, 7 d of culture

CC(O)CCCCCCCCO (stereo not drawn) [1,9-D, 1,9-decanediol]
contents of ammonia nitrogen in soil (NH4^+-N) [1]: 171.9 ± 8.1a | contents of urea nitrogen in soil (Urea-N) [1]: 10.1 ± 0.7c | contents of ammonia nitrogen in soil (NH4^+-N) [2]: 176.8 ± 1.2c | contents of urea nitrogen in soil (Urea-N) [2]: 3.7 ± 1.2cd | contents of ammonia nitrogen in soil (NH4^+-N) [3]: 197.7 ± 7.3ab | contents of urea nitrogen in soil (Urea-N) [3]: 3.4 ± 0.5 days | contents of ammonia nitrogen in soil (NH4^+-N) [4]: 187 ± 8.5 mg/kg | contents of urea nitrogen in soil (Urea-N) [4]: 3.3 ± 0.2c | contents of ammonia nitrogen in soil (NH4^+-N) [5]: 221.7 ± 2.4ab | contents of urea nitrogen in soil (Urea-N) [5]: 2.9 ± 0.5bc | contents of ammonia nitrogen in soil (NH4^+-N) [6]: 150.8 ± 2.8b | contents of urea nitrogen in soil (Urea-N) [6]: 15.2 ± 0.1c | contents of ammonia nitrogen in soil (NH4^+-N) [7]: 173.7 ± 1.9c | contents of urea nitrogen in soil (Urea-N) [7]: 9.1 ± 0.51b | contents of ammonia nitrogen in soil (NH4^+-N) (1,9-decanediol 200 mg/kg in soil + urea, 3 d of culture): 195 ± 9b | contents of ammonia nitrogen in soil (NH4^+-N) [8]: 213.9 ± 3.3ab | contents of urea nitrogen in soil (Urea-N) [8]: 2.8 ± 0.5c | contents of ammonia nitrogen in soil (NH4^+-N) [9]: 221.4 ± 4.4ab | contents of urea nitrogen in soil (Urea-N) [9]: 4.2 ± 1.4ab | contents of ammonia nitrogen in soil (NH4^+-N) [10]: 51 ± 1.1c | contents of urea nitrogen in soil (Urea-N) [10]: 115.6 ± 13b | contents of ammonia nitrogen in soil (NH4^+-N) [11]: 160 ± 6.2 mg/kg | contents of urea nitrogen in soil (Urea-N) [11]: 11.7 ± 0.4b | contents of ammonia nitrogen in soil (NH4^+-N) [12]: 180.8 ± 6.3c | contents of urea nitrogen in soil (Urea-N) [12]: 10.5 ± 0.7b | contents of ammonia nitrogen in soil (NH4^+-N) [13]: 207.3 ± 2.1b | contents of urea nitrogen in soil (Urea-N) [13]: 6.1 ± 0.6a | contents of ammonia nitrogen in soil (NH4^+-N) [14]: 217.3 ± 3.3b | contents of urea nitrogen in soil (Urea-N) [14]: 3.4 ± 0.7bc | contents of ammonia nitrogen in soil (NH4^+-N) [15]: 46.3 ± 2.1c | contents of urea nitrogen in soil (Urea-N) [15]: 139 ± 7.2a | contents of ammonia nitrogen in soil (NH4^+-N) [16]: 92.9 ± 0.4e | contents of urea nitrogen in soil (Urea-N) [16]: 73.4 ± 3.8a | contents of ammonia nitrogen in soil (NH4^+-N) [17]: 152 ± 1.4 mg/kg | contents of urea nitrogen in soil (Urea-N) [17]: 14.8 ± 1.7a | contents of ammonia nitrogen in soil (NH4^+-N) [18]: 196.7 ± 2c | contents of urea nitrogen in soil (Urea-N) [18]: 5 ± 0.5b | contents of ammonia nitrogen in soil (NH4^+-N) [19]: 203.2 ± 7c | contents of urea nitrogen in soil (Urea-N) [19]: 5.4 ± 0.5a | inhibition of urea hydrolysis during the culture period (addition of 500 mg/kg): can significantly inhibit the urea hydrolysis | inhibition of urea hydrolysis during the culture period (addition of 1000 mg/kg): can significantly inhibit the urea hydrolysis | effect on retarding the hydrolysis efficiency of urea: can retard the hydrolysis efficiency of urea | efficiencies of retarding urea hydrolysis from large to small (ranking of treatments (1,9-D 100-1000 mg/kg, DCD 20 mg/kg soil)): 1, 9-D-1000>1, 9-D-500>1, 9-D-200>1, 9-D-100>DCD

N#CN=C(N)N [DCD, dicyandiamide, reference compound]
contents of ammonia nitrogen in soil (NH4^+-N) [20]: 176.9 ± 5.5a | contents of urea nitrogen in soil (Urea-N) [20]: 4.5 ± 0.4c | contents of ammonia nitrogen in soil (NH4^+-N) [21]: 183.6 ± 4b | contents of urea nitrogen in soil (Urea-N) [21]: 1.6 ± 0.3 days | contents of ammonia nitrogen in soil (NH4^+-N) [22]: 203.1 ± 1.6ab | contents of urea nitrogen in soil (Urea-N) [22]: 1.4 ± 0.2e | contents of ammonia nitrogen in soil (NH4^+-N) [23]: 208.4 ± 1.6b | contents of urea nitrogen in soil (Urea-N) [23]: 1.2 ± 0.1 days | contents of ammonia nitrogen in soil (NH4^+-N) [24]: 217.9 ± 4.3b | contents of urea nitrogen in soil (Urea-N) [24]: 2.9 ± 0.4bc | effect on retarding the hydrolysis efficiency of urea: no effect
